{
  "source": "patent US20120264961A1",
  "about": "“FE3O4-M(AU-LIKE)-NANOPARTICLES FOR ANTIBODY-CONSERVING TARGET-SPECIFIC PLATIN DELIVERY” (Brown University, priority 2009, published 2012)",
  "origin": "cited, not measured here",
  "conditions": "water solubility",
  "data": [
    {"compound": "N.N.O=C([O-])C1(C(=O)[O-])CCC1.[Pt+2]", "note": "[carboplatin]", "values": [
      {"measurement": "solubility", "value": 22, "unit": "mg/mL"}
    ]}
  ]
}
